Measurements taken from article PMC6967409 (Frontiers in Chemistry, 2020).
Values joined by “and” are separate entries in the source; they are usually repeats but may differ in a detail not shown here. Identical values can stand only once. Like-named read-outs stand apart in the source and are kept apart here.

Assays:
[1] = tested on: P. falciparum NF54; test: Metabolic (parasite LDH) assay, asexual ring stage parasites, 48 h; assay type: cell-based; conditions: Plasmodium falciparum, pLDH, CQ-sensitive NF54
Procedure: (§1) P. falciparum parasites (NF54, K1, and W2) were cultured in vitro in human erythrocytes (A^+ or O^+) under 90% N2, 5% CO2, and 5% O2 atmospheric conditions with supplemented RPMI 1640 media (Sigma Aldrich) containing Albumax II, as previously described (Verlinden et al., [2011]). This study was carried out according the guidelines set out by the Faculty of Health Sciences Ethical Committee, Ethical Clearance no. EC-120821/077. The protocol was approved by the Faculty of Health sciences ethical committee at the University of Pretoria. All subjects gave written informed consent in accordance with the Declaration of Helsinki. Parasite proliferation was monitored microscopically using Giemsa stained smears. Synchronized ring stage parasites (>95%) were obtained using a 5% D-sorbitol (Sigma Aldrich) treatment. […] Gametocyte cultures were kept stationary under 90% N2, 5% CO2, and 5% O2 atmospheric conditions at 37°C and treated with 50 mM N-acetyl-glucosamine (NAG) to eliminate residual invasion of asexual parasites.
(§2) Working solutions of the derivatives were prepared from a 10 mM stock solution in 100% DMSO in supplemented RPMI 1640 media containing Albumax II with a final DMSO concentration of <0.1%, previously determined as being non-toxic to intraerythrocytic asexual parasites and gametocytes. Dose responses were assayed using a two-fold serial drug dilution on in vitro >95% ring stage intraerythrocytic P. falciparum parasites at 37°C under 90% N2, 5% CO2, and 5% O2 atmospheric conditions, detecting both parasite lactate dehydrogenase (pLDH) activity as a metabolic marker following a 48 h drug exposure (1.5–2% parasitemia and 2% hematocrit; Makler et al., [1993]) and SYBR Green I fluorescence as proliferative marker following a 96 h drug exposure (1% parasitemia and 1% hematocrit). […] Data analysis was performed using GraphPad Prism 7.

[2] = tested on: P. falciparum Dd2; test: as above; assay type: cell-based; conditions: Plasmodium falciparum, pLDH, Dd2 CQ, pyrimethamine resistant
Procedure: as §2

[3] = tested on: P. falciparum K1; test: Proliferative (SYBR Green I) assay, asexual parasites, 96 h; assay type: cell-based; conditions: Plasmodium falciparum, ±SEM
Procedure: as §1, §2

[4] = tested on: P. falciparum NF54; test: as above; assay type: cell-based; conditions: Plasmodium falciparum, ±SEM
Procedure: as §1, §2

[5] = tested on: P. falciparum W2; test: as above; assay type: cell-based; conditions: Plasmodium falciparum, ±SEM
Procedure: as §1, §2

[6] = Cytotoxicity, MTT assay; assay type: cell-based; conditions: Chinese hamster, CHO cells
Procedure: (§3) Cytotoxicity (EC50) was determined against Chinese hamster ovarian (CHO) using a 3-(4,5-dimethylthiazol-2-yl)-2,5-diphenyltetrazolium bromide (MTT) assay and hepatocellular carcinoma cells (HepG2) using the Cytoselect LDH cytotoxicity assay kit (Cell Biolabs).

[7] = Cytotoxicity, Cytoselect LDH cytotoxicity assay kit; assay type: cell-based; conditions: human, HepG2 cells
Procedure: as §3

[8] = tested on: P. falciparum NF54 early stage gametocytes (>90% stage I–III); test: Gametocytocidal luciferase reporter assay, early stage, 48 h; assay type: cell-based; conditions: Plasmodium falciparum, NF54, 48 h, read-out: Early Stage (EG, Luc 48 h) IC50
Procedure: as §1
(§4) Gametocytocidal activity was determined using the luciferase reporter line (Reader et al., [2015]) to derive dose responses with two-fold serial drug dilutions for 48 h against early stage gametocytes (day 5 post-induction population, >90% stage I–III) and 10-fold serial drug dilutions for 72 h against late stage gametocytes (day 10 post-induction population, >90% late stage IV–V) (2% gametocytemia, 2% hematocrit), at 37°C under 90% N2, 5% CO2, and 5% O2 atmospheric conditions.

[9] = tested on: P. falciparum NF54 late stage gametocytes (>90% stage IV and V); test: Gametocytocidal luciferase reporter assay, late stage, 72 h; assay type: cell-based, Plasmodium falciparum; conditions: Plasmodium falciparum, NF54, 72 h, read-out: Late Stage (LG, Luc 72 h) IC50, >90% stage IV and V gametocytes, ±SEM
Procedure: as §1, §4

[10] = tested on: P. berghei ANKA GFP-Luc-SMcon sporozoites; test: P. berghei-luciferase liver stage bioluminescence assay (causal prophylactic mode) in HepG2-CD81 cells; assay type: cell-based, Plasmodium berghei; conditions: for Emax: 48 h, read-out: P.berghei-Luciferase Liver Stage Bioluminescence Assay: Maximum measured (%); for inhibition at 10 µM: Conc. 10 μM, read-out: P. berghei sporozoites Maximum inhibition %
Procedure: (§5) Briefly, HepG2-CD81 cells were seeded into 1,536 well plates containing 50 nL of test and control compounds diluted into DMSO. […] Next, 2 μL of luciferin reagent (Promega BrightGlo) was added to each well and luciferase activity was detected using a Perkin Elmer Envision plate reader. […] In parallel, plates were processed without sporozoites for HepG2 toxicity measurements.
(§6) In continuation of the transmission blocking theme, it is important to establish activities against liver stage parasites. […] This assay uses ultra-high-throughput screening methods optimized for a 1536-well format and a HepG2 human hepatoma cell line. […] To establish selectivity of the compounds for the parasite in the liver stage of infection, cytotoxicity was determined by measuring bioluminescence from the reaction between free ATP of compound-treated, uninfected hepatocytes and a luciferase reporter system.

[11] = HepG2 cytotoxicity bioluminescence assay (CellTiterGlo, ATP); assay type: cell-based, human; conditions: human, uninfected HepG2-CD81 cells; for IC50 at 72 h: two biological replicates listed in one cell; for EC50 at 72 h: uninfected HepG2, ATP bioluminescence
Procedure: as §5, §6

[12] = tested on: HepG2 cells; test: as above; assay type: cell-based, human; conditions: two biological replicates listed in one cell
Procedure: as §5, §6

[13] = tested on: asexual P. falciparum NF54, Dd2, K1, W2; test: Asexual P. falciparum, metabolic (pLDH) and proliferative (SYBR Green I) platforms; assay type: cell-based; conditions: Plasmodium falciparum; read-out: IC50 for drug sensitive NF54 parasites across both assay platforms
Procedure: Data analysis was performed using GraphPad Prism 7.
The in vitro activities of the new derivatives were determined against drug sensitive NF54 and multi-drug resistant Dd2, K1, and W2 intraerythrocytic asexual P. falciparum malaria parasite strains using both a metabolic (parasite LDH) and a proliferative (SYBR Green I fluorescence) assay readout (Table 1).

[14] = tested on: P. falciparum NF54; set-up: method as in Coertzen et al. (2018); conditions: pLDH, 48 h; ref Coertzen et al. (2018); read-out: Metabolic IC50 NF54; cited from earlier work
[15] = tested on: P. falciparum Dd2; set-up: method as in Coertzen et al. (2018); conditions: pLDH, 48 h; ref Coertzen et al. (2018); read-out: Metabolic IC50 Dd2; cited from earlier work
[16] = tested on: P. falciparum NF54; set-up: method as in Coertzen et al. (2018); conditions: SYBR Green I; ref Coertzen et al. (2018); read-out: Proliferative IC50 NF54; cited from earlier work
[17] = tested on: P. falciparum K1; set-up: method as in Coertzen et al. (2018); conditions: SYBR Green I; ref Coertzen et al. (2018); read-out: Proliferative IC50 K1; cited from earlier work
[18] = tested on: P. falciparum W2; set-up: method as in Coertzen et al. (2018); conditions: SYBR Green I; ref Coertzen et al. (2018); read-out: Proliferative IC50 W2; cited from earlier work
[19] = tested on: P. falciparum NF54 early stage gametocytes (>90% stage I–III); set-up: method as in Coertzen et al. (2018); conditions: read-out: Early Stage (EG, Luc 48 h) IC50; >90% stage I–III gametocytes; ref Coertzen et al. (2018); cited from earlier work
[20] = tested on: P. falciparum NF54 late stage gametocytes (>90% stage IV and V); set-up: method as in Coertzen et al. (2018); conditions: read-out: Late Stage (LG, Luc 72 h) IC50; >90% stage IV and V gametocytes; ref Coertzen et al. (2018); cited from earlier work
[21] = tested on: Chinese hamster ovarian (CHO) cells; conditions: cited from earlier work
[22] = tested on: P. falciparum W2; test: T0 [3H]-hypoxanthine drug susceptibility assay; assay type: cell-based; conditions: Plasmodium falciparum; for IC50: W2, read-out: W2 IC50; for IC90: W2, read-out: W2 IC90
[23] = tested on: P. falciparum ARC08-22 (4G); test: T0 [3H]-hypoxanthine drug susceptibility assay, artemisinin-resistant clone (C580Y); assay type: cell-based, Plasmodium falciparum; conditions: preliminary, W2 as comparative sensitive strain
[24] = Plasmodium berghei, two biological replicates listed in one cell
[25] = Plasmodium berghei, HepG2, 48 h, liver stage, HepG2 host cells, luciferase after 48 h, ±SD, read-out: P. berghei sporozoites IC50
[26] = Plasmodium berghei, two biological replicates listed in one cell, read-out: P.berghei-Luciferase Liver Stage Bioluminescence Assay: IC50

Structure (SMILES) | IC50 [1] [nM] | IC50 [2] [nM] | IC50 [3] [nM] | IC50 [4] [nM] | IC50 [5] [nM] | EC50 [6] [nM] | EC50 [7] [nM] | IC50 [9] [nM] | Emax [10, 24] [%] | IC50 [10, 25] [nM] | IC50 [10, 26] [nM] | inhibition at 10 µM ([10]; Plasmodium berghei) [%] | IC50 at 72 h [11] [nM] | EC50 at 72 h [11] [nM] | IC50 [14] [nM] | IC50 [15] [nM] | IC50 [16] [nM] | IC50 [17] [nM] | IC50 [18] [nM] | IC50 [19] [nM] | further results
C[C@H]1[C@H](N2CCN(C(=O)Nc3ccc(C(F)(F)F)cc3)CC2)O[C@@H]2O[C@@]3(C)CC[C@H]4[C@H](C)CC[C@@H]1[C@@]24OO3 [Compound 23] | 1.83 ± 0.2 | 12.2 ± 1.9 | 1.12 ± 0.13 | 1.55 ± 0.08 | 1.41 ± 0.09 | 185000 | 453 | 1 ± 0.3 | 99.5 | 82.5 ± 4.17 | 79.6 | 105 ± 7.42 | 6990 | 5450 |  |  |  |  |  |  | IC50 ([8]; >90% stage I–III gametocytes, ±SEM): 20 ± 9.4 nM; IC50 ([10]; two biological replicates listed in one cell, listed as 23 (WHN-11), read-out: P.berghei-Luciferase Liver Stage Bioluminescence Assay: IC50): 85.5 nM; HepG2 Cytotoxicity Bioluminescence Assay: Maximum measured (%) ([12]; listed as 23 (WHN-11)): 50.9% and 55.9%; IC50 ([12]; listed as 23 (WHN-11)): 3910 nM; IC50 [13]: 1 to 2 nM
CN(C)c1ccc2nc3ccc(=[N+](C)C)cc-3sc2c1 [MB, methylene blue] |  |  |  |  |  |  |  |  |  |  |  |  |  |  | 0.3 ± 0.8 | 12.6 ± 4 | 5 ± 0.8 | 6.45 ± 0.3 | 5.13 ± 0.31 | 95 ± 11.3 | IC50 [20]: 143 ± 16.7 nM; EC50 [21]: 52600 ± 4500 nM
CC1CCC2C(C)C(Nc3ccc(F)cc3)OC3OC4(C)CCC1C32OO4 (stereo not shown) [Arylamine 12] |  |  |  |  |  |  |  |  |  |  |  |  |  |  | 7.8 ± 1.9 | 11.1 ± 1 | 1.3 ± 0.6 | 0.64 ± 0.1 | 3 ± 1 | 38.2 ± 9 | IC50 [22]: 4.76 ± 0.38 nM; IC90 [22]: 8.51 ± 0.34 nM; IC50 [20]: 16.4 ± 6.38 nM; EC50 ([21]; read-out: Cytotoxicity EC50 CHO, MTT assay, ref Coertzen et al. (2018)): 2900 ± 1400 nM
C[C@H]1[C@H](N2CCN(C(=O)c3ccc(C(F)(F)F)cc3)CC2)O[C@@H]2O[C@@]3(C)CC[C@H]4[C@H](C)CC[C@@H]1[C@@]24OO3 [Compound 27] | 0.49 ± 0.04 | 13.2 ± 9.3 | 3.5 ± 2.4 | 3.4 ± 0.4 | 3 ± 0.4 | 150000 | 136 | 2.8 ± 1.8 | 105 | 168 ± 55.2 | 129 | 108 ± 4.24 | 8910 | 7020 |  |  |  |  |  |  | IC50 [8]: 43.7 ± 5.1 nM; IC50 ([10]; two biological replicates listed in one cell, listed as 27 (WHN-15), read-out: P.berghei-Luciferase Liver Stage Bioluminescence Assay: IC50): 207 nM; HepG2 Cytotoxicity Bioluminescence Assay: Maximum measured (%) ([12]; listed as 27 (WHN-15)): 78.3% and 80.2%; IC50 ([12]; listed as 27 (WHN-15)): 5120 nM; IC50 [22]: 0.21 ± 0.04 nM; IC90 [22]: 0.41 ± 0.08 nM; susceptibility of ARC08-22 (4G) clone (in words) [23]: no indication of reduced susceptibility
